Laboratory results from patent US10294202B2, “Pyrrolidinones as herbicides” (FMC Corporation, priority 2013, dated 2019).

Columns and labels:
crabgrass, large = assay: Test A pre-/postemergence herbicide test; assay type: in vivo, Digitaria sanguinalis
In short: (§1)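 Approximately 10 days after treatment in the greenhouse, plants were compared with untreated controls and given a 0–100 visual injury rating. Applications: preemergence directed soil spray; postemergence on 2–10 cm plants at the one- to two-leaf stage.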

barnyardgrass [1] = assay: Test A pre-/postemergence herbicide test; assay type: in vivo, Echinochloa crus-galli
In short: as §1

corn = assay: Test A pre-/postemergence herbicide test; assay type: in vivo, Zea mays
In short: as §1

barnyardgrass [2] = assay: Test B flooded paddy test; assay type: in vivo, Echinochloa crus-galli; conditions: 1000 g ai/ha, Flood; scale of 0 to 100 where 0 is no effect and 100 is complete control
In short: (§2)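 Scored visually 0–100 (0 no effect, 100 complete control) versus controls after 13 to 15 greenhouse days. Treatment: compound added to paddy water kept 3 cm above soil, on 2-leaf-stage plants.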

giant foxtail = assay: Test A pre-/postemergence herbicide test; assay type: in vivo, Setaria faberii
In short: as §1

morningglory = assay: Test A pre-/postemergence herbicide test; assay type: in vivo, Ipomoea spp.
In short: as §1

sedge, umbrella = assay: Test B flooded paddy test; assay type: in vivo, Cyperus difformis; conditions: 1000 g ai/ha, Flood; scale of 0 to 100 where 0 is no effect and 100 is complete control
In short: as §2

wheat = assay: Test A pre-/postemergence herbicide test; assay type: in vivo, Triticum aestivum
In short: as §1

pigweed = assay: Test A pre-/postemergence herbicide test; assay type: in vivo, Amaranthus retroflexus
In short: as §1

rice = assay: Test B flooded paddy test; assay type: in vivo, Oryza sativa; conditions: 1000 g ai/ha, Flood; scale of 0 to 100 where 0 is no effect and 100 is complete control
In short: as §2

velvetleaf = assay: Test A pre-/postemergence herbicide test; assay type: in vivo, Abutilon theophrasti
In short: as §1

ducksalad = assay: Test B flooded paddy test; assay type: in vivo, Heteranthera limosa; conditions: 1000 g ai/ha, Flood; scale of 0 to 100 where 0 is no effect and 100 is complete control
In short: as §2

[3] = Postemergence, 1000 g ai/ha, 0 to 100 scale (0 no effect, 100 complete control)
[4] = Preemergence, 1000 g ai/ha, visual rating on 0 to 100 scale (0 no effect, 100 complete control), approx. 10 days
[5] = preemergence, 1000 g ai/ha, 0 to 100 scale
[6] = 125 g ai/ha, visual rating, 0 to 100 scale, 0 no effect, 100 complete control, approximately 10 days, preemergence
[7] = Postemergence, 125 g ai/ha, 0 to 100 scale, 0 no effect, 100 complete control
[8] = preemergence, 500 g ai/ha, 0 to 100 scale
[9] = Postemergence, 500 g ai/ha, 0 to 100 scale (0 no effect, 100 complete control)

Cc1c(Cl)cccc1NC(=O)C1C(=O)NCC1c1ccc(F)c(F)c1 (racemic) [Compound 100]
Plant response rating, Crabgrass, Large (crabgrass, large; [3]): 90
Plant response rating, Crabgrass, Large (crabgrass, large; [4]): 90
Plant response rating, Barnyardgrass (barnyardgrass [1]; [3]): 80
Plant response rating, Barnyardgrass (barnyardgrass [1]; [4]): 90
Plant response rating, Corn (corn; [3]): 40
Plant response rating, Corn (corn; [4]): 20
Plant response rating, Barnyardgrass (barnyardgrass [2]): 25
Plant response rating, Foxtail, Giant (giant foxtail; [3]): 80
Plant response rating, Foxtail, Giant (giant foxtail; [4]): 90
Plant response rating, Morningglory (morningglory; [3]): 0
Plant response rating, Morningglory (morningglory; [4]): 0
Plant response rating, Sedge, Umbrella (sedge, umbrella): 0
Plant response rating, Wheat (wheat; [3]): 30
Plant response rating, Wheat (wheat; [4]): 20
Plant response rating, Pigweed (pigweed; [3]): 0
Plant response rating, Pigweed (pigweed; [4]): 0
Plant response rating, Rice (rice): 0
Plant response rating, Velvetleaf (velvetleaf; [3]): 0
Plant response rating, Velvetleaf (velvetleaf; [4]): 0
Plant response rating, Ducksalad (ducksalad): 75

O=C1NCC(c2ccc(F)c(F)c2)C1C(=O)Nc1cccc(F)c1Cl (racemic) [Compound 108]
Plant response rating, Crabgrass, Large (crabgrass, large; [3]): 90
Plant response rating, Crabgrass, Large (crabgrass, large; [5]): 90
Plant response rating, Barnyardgrass (barnyardgrass [1]; [3]): 90
Plant response rating, Barnyardgrass (barnyardgrass [1]; preemergence, 1000 g ai/ha, 0 to 100 scale (0 no effect, 100 complete control)): 90
Plant response rating, Corn (corn; [3]): 0
Plant response rating, Corn (corn; [5]): 0
Plant response rating, Barnyardgrass (barnyardgrass [2]): 50
Plant response rating, Foxtail, Giant (giant foxtail; [3]): 80
Plant response rating, Foxtail, Giant (giant foxtail; [5]): 90
Plant response rating, Morningglory (morningglory; [3]): 10
Plant response rating, Morningglory (morningglory; [5]): 0
Plant response rating, Sedge, Umbrella (sedge, umbrella): 0
Plant response rating, Wheat (wheat; [3]): 0
Plant response rating, Wheat (wheat; [5]): 0
Plant response rating, Pigweed (pigweed; [3]): 0
Plant response rating, Pigweed (pigweed; [5]): 0
Plant response rating, Rice (rice): 0
Plant response rating, Velvetleaf (velvetleaf; [3]): 10
Plant response rating, Velvetleaf (velvetleaf; [5]): 0
Plant response rating, Ducksalad (ducksalad): 95

O=C1NCC(c2ccc3ccccc3c2)C1C(=O)Nc1ccccc1F (racemic) [Compound 115]
Plant response rating, Crabgrass, Large (crabgrass, large; [6]): 70
Plant response rating, Crabgrass, Large (crabgrass, large; [7]): 0
Crabgrass, Large plant response rating (0 to 100 scale, 0 is no effect, 100 is complete control) (crabgrass, large; Postemergence, 500 g ai/ha): 50
Plant response rating, Crabgrass, Large (crabgrass, large; [8]): 80
Plant response rating, Barnyardgrass (barnyardgrass [1]; [6]): 0
Plant response rating, Barnyardgrass (barnyardgrass [1]; [7]): 10
Plant response rating, Barnyardgrass (barnyardgrass [1]; [9]): 50
Plant response rating, Barnyardgrass (barnyardgrass [1]; preemergence, 500 g ai/ha, 0 to 100 scale (0 no effect, 100 complete control)): 50
Plant response rating, Corn (corn; [6]): 0
Plant response rating, Corn (corn; [7]): 0
Plant response rating, Corn (corn; [9]): 0
Plant response rating, Corn (corn; [8]): 0
Plant response rating, Barnyardgrass (barnyardgrass [2]): 20
Plant response rating, Foxtail, Giant (giant foxtail; [6]): 20
Plant response rating, Foxtail, Giant (giant foxtail; [7]): 0
Foxtail, Giant plant response rating (0 to 100 scale, 0 is no effect, 100 is complete control) (giant foxtail; Postemergence, 500 g ai/ha): 10
Plant response rating, Foxtail, Giant (giant foxtail; [8]): 20
Plant response rating, Morningglory (morningglory; [6]): 0
Plant response rating, Morningglory (morningglory; [7]): 0
Morningglory plant response rating (0 to 100 scale, 0 is no effect, 100 is complete control) (morningglory; Postemergence, 500 g ai/ha): 0
Plant response rating, Morningglory (morningglory; [8]): 0
Plant response rating, Sedge, Umbrella (sedge, umbrella): 0
Plant response rating, Wheat (wheat; [6]): 0
Plant response rating, Wheat (wheat; [7]): 0
Wheat plant response rating (0 to 100 scale, 0 is no effect, 100 is complete control) (wheat; Postemergence, 500 g ai/ha): 0
Plant response rating, Wheat (wheat; [8]): 0
Plant response rating, Pigweed (pigweed; [6]): 0
Plant response rating, Pigweed (pigweed; [7]): 0
Pigweed plant response rating (0 to 100 scale, 0 is no effect, 100 is complete control) (pigweed; Postemergence, 500 g ai/ha): 0
Plant response rating, Pigweed (pigweed; [8]): 0
Plant response rating, Rice (rice): 0
Plant response rating, Velvetleaf (velvetleaf; [6]): 0
Plant response rating, Velvetleaf (velvetleaf; [7]): 0
Velvetleaf plant response rating (0 to 100 scale, 0 is no effect, 100 is complete control) (velvetleaf; Postemergence, 500 g ai/ha): 0
Plant response rating, Velvetleaf (velvetleaf; [8]): 0
Plant response rating, Ducksalad (ducksalad): 90
